ChEMBL document CHEMBL1201862, “PubChem BioAssay data set” (2004)
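Following 48 hours of exposure in 96-well plates, responses at five concentrations were used to interpolate endpoints linearly. Abbreviation: GI50, concentration required for 50% inhibition of growth.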 Active and inactive are the calls of the source. No stated cut-off is given here; in the data, active = GI50 up to about 1.1 µM and inactive = higher.

What was measured:
Assay in all cases: DTP human tumour cell line panel, 48 h
PC-3 = tested on: PC-3
SK-OV-3 = tested on: SK-OV-3
UO-31 = tested on: UO-31
NCI-H226 = tested on: NCI-H226
SNB-75 = tested on: SNB-75
A498 = tested on: A498
HOP-62 = tested on: HOP-62
HL-60 = tested on: HL-60
HCT-116 = tested on: HCT-116
A549 = tested on: A549
MCF7 = tested on: MCF7
TK-10 = tested on: TK-10
OVCAR-4 = tested on: OVCAR-4
RPMI-8226 = tested on: RPMI-8226
MDA-MB-435 = tested on: MDA-MB-435
BT-549 = tested on: BT-549
NCI-H522 = tested on: NCI-H522
OVCAR-5 = tested on: OVCAR-5
EKVX = tested on: EKVX
T47D = tested on: T47D
HT-29 = tested on: HT-29
SK-MEL-28 = tested on: SK-MEL-28
MDA-MB-231 = tested on: MDA-MB-231
U-251 = tested on: U-251
SF-295 = tested on: SF-295
SW-620 = tested on: SW-620
K562 = tested on: K562
IGROV-1 = tested on: IGROV-1
HCT-15 = tested on: HCT-15
SF-268 = tested on: SF-268
786-0 = tested on: 786-0
SF-539 = tested on: SF-539
Hs-578T = tested on: Hs-578T
NCI/ADR-RES = tested on: NCI/ADR-RES
CAKI-1 = tested on: CAKI-1
SR = tested on: SR
UACC-257 = tested on: UACC-257
OVCAR-3 = tested on: OVCAR-3
COLO 205 = tested on: COLO 205
M14 = tested on: M14
SK-MEL-5 = tested on: SK-MEL-5
SN12C = tested on: SN12C
LOX IMVI = tested on: LOX IMVI
KM12 = tested on: KM12
SNB-19 = tested on: SNB-19
OVCAR-8 = tested on: OVCAR-8
UACC-62 = tested on: UACC-62
HCC 2998 = tested on: HCC 2998
SK-MEL-2 = tested on: SK-MEL-2
MOLT-4 = tested on: MOLT-4
NCI-H460 = tested on: NCI-H460
ACHN = tested on: ACHN
DU-145 = tested on: DU-145
HOP-92 = tested on: HOP-92
CCRF-CEM = tested on: CCRF-CEM
MDA-N = tested on: MDA-N
NCI-H23 = tested on: NCI-H23
Malme-3M = tested on: Malme-3M
RXF 393 = tested on: RXF 393

COC(=O)CN(CC1O[C@@H]2OC(C)(C)O[C@@H]2C1N=[N+]=[N-])C(=O)OCc1ccccc1 (some centres undefined)
GI50 (PC-3): > 100 µM (inactive)
GI50 (SK-OV-3): > 100 µM (inactive)
GI50 (UO-31): > 100 µM (inactive)
GI50 (NCI-H226): > 100 µM (inactive)
GI50 (SNB-75): > 100 µM (inactive)
GI50 (A498): > 100 µM (inactive)
GI50 (HOP-62): > 100 µM (inactive)
GI50 (HL-60): 69.3 µM (inactive)
GI50 (HCT-116): > 100 µM (inactive)
GI50 (A549): > 100 µM (inactive)
GI50 (MCF7): > 100 µM (inactive)
GI50 (TK-10): > 100 µM (inactive)
GI50 (OVCAR-4): > 100 µM (inactive)
GI50 (RPMI-8226): > 100 µM (inactive)
GI50 (MDA-MB-435): > 100 µM (inactive)
GI50 (BT-549): > 100 µM (inactive)
GI50 (NCI-H522): > 100 µM (inactive)
GI50 (OVCAR-5): > 100 µM (inactive)
GI50 (EKVX): > 100 µM (inactive)
GI50 (T47D): > 100 µM (inactive)
GI50 (HT-29): > 100 µM (inactive)
GI50 (SK-MEL-28): > 100 µM (inactive)
GI50 (MDA-MB-231): > 100 µM (inactive)
GI50 (U-251): > 100 µM (inactive)
GI50 (SF-295): > 100 µM (inactive)
GI50 (SW-620): > 100 µM (inactive)
GI50 (K562): 57 µM (inactive)
GI50 (IGROV-1): > 100 µM (inactive)
GI50 (HCT-15): > 100 µM
GI50 (SF-268): > 100 µM (inactive)
GI50 (786-0): > 100 µM (inactive)
GI50 (SF-539): > 100 µM (inactive)
GI50 (Hs-578T): 16 µM (inactive)
GI50 (NCI/ADR-RES): 30.9 µM (inactive)
GI50 (CAKI-1): > 100 µM (inactive)
GI50 (SR): > 100 µM (inactive)
GI50 (UACC-257): > 100 µM (inactive)
GI50 (OVCAR-3): > 100 µM (inactive)
GI50 (COLO 205): > 100 µM (inactive)
GI50 (M14): > 100 µM (inactive)
GI50 (SK-MEL-5): > 100 µM (inactive)
GI50 (SN12C): > 100 µM (inactive)
GI50 (LOX IMVI): > 100 µM (inactive)
GI50 (KM12): > 100 µM (inactive)
GI50 (SNB-19): > 100 µM (inactive)
GI50 (OVCAR-8): > 100 µM (inactive)
GI50 (UACC-62): > 100 µM (inactive)
GI50 (HCC 2998): > 100 µM (inactive)
GI50 (SK-MEL-2): > 100 µM (inactive)
GI50 (MOLT-4): 51.4 µM (inactive)
GI50 (NCI-H460): > 100 µM (inactive)
GI50 (ACHN): > 100 µM (inactive)
GI50 (DU-145): > 100 µM (inactive)
GI50 (HOP-92): > 100 µM (inactive)

COC(=O)c1c([N+](=O)[O-])ncn1[C@H]1OC[C@@H](OC(C)=O)[C@@H](OC(C)=O)[C@@H]1OC(C)=O
GI50 (PC-3): > 100 µM (inactive)
GI50 (SK-OV-3): > 100 µM (inactive)
GI50 (UO-31): > 100 µM (inactive)
GI50 (NCI-H226): > 100 µM (inactive)
GI50 (SNB-75): > 100 µM (inactive)
GI50 (A498): > 100 µM (inactive)
GI50 (HOP-62): > 100 µM (inactive)
GI50 (HL-60): > 100 µM (inactive)
GI50 (HCT-116): > 100 µM (inactive)
GI50 (A549): > 100 µM (inactive)
GI50 (MCF7): > 100 µM (inactive)
GI50 (TK-10): > 100 µM (inactive)
GI50 (OVCAR-4): > 100 µM (inactive)
GI50 (MDA-MB-435): > 100 µM (inactive)
GI50 (BT-549): > 100 µM (inactive)
GI50 (NCI-H522): > 100 µM (inactive)
GI50 (CCRF-CEM): > 100 µM (inactive)
GI50 (OVCAR-5): > 100 µM (inactive)
GI50 (EKVX): > 100 µM (inactive)
GI50 (T47D): > 100 µM (inactive)
GI50 (MDA-N): > 100 µM (inactive)
GI50 (NCI-H23): > 100 µM (inactive)
GI50 (HT-29): > 100 µM (inactive)
GI50 (SK-MEL-28): > 100 µM (inactive)
GI50 (MDA-MB-231): > 100 µM (inactive)
GI50 (U-251): > 100 µM (inactive)
GI50 (SF-295): > 100 µM (inactive)
GI50 (SW-620): > 100 µM (inactive)
GI50 (K562): > 100 µM (inactive)
GI50 (IGROV-1): > 100 µM (inactive)
GI50 (HCT-15): > 100 µM
GI50 (SF-268): > 100 µM (inactive)
GI50 (786-0): > 100 µM (inactive)
GI50 (SF-539): > 100 µM (inactive)
GI50 (Malme-3M): > 100 µM (inactive)
GI50 (NCI/ADR-RES): > 100 µM (inactive)
GI50 (CAKI-1): > 100 µM (inactive)
GI50 (SR): > 100 µM (inactive)
GI50 (UACC-257): > 100 µM (inactive)
GI50 (OVCAR-3): > 100 µM (inactive)
GI50 (COLO 205): > 100 µM (inactive)
GI50 (M14): > 100 µM (inactive)
GI50 (SN12C): > 100 µM (inactive)
GI50 (LOX IMVI): > 100 µM (inactive)
GI50 (RXF 393): > 100 µM (inactive)
GI50 (KM12): > 100 µM (inactive)
GI50 (SNB-19): > 100 µM (inactive)
GI50 (OVCAR-8): > 100 µM (inactive)
GI50 (UACC-62): > 100 µM (inactive)
GI50 (HCC 2998): > 100 µM (inactive)
GI50 (MOLT-4): > 100 µM (inactive)
GI50 (NCI-H460): > 100 µM (inactive)
GI50 (ACHN): > 100 µM (inactive)
GI50 (DU-145): > 100 µM (inactive)
GI50 (HOP-92): > 100 µM (inactive)
